For one molecule, Ki results are on record in article PMC7462507, “Noncompetitive Inhibition of Bovine Liver Catalase by Lawsone: Kinetics, Binding Mechanism and in silico Modeling Approaches” (Iranian Journal of Pharmaceutical Research : IJPR, 2020).

The target in this assay is T1, bovine liver catalase (BLC) (Bos taurus, UniProt P00432).
T1 construct: gene CAT
T1 sequence (P00432 2-527): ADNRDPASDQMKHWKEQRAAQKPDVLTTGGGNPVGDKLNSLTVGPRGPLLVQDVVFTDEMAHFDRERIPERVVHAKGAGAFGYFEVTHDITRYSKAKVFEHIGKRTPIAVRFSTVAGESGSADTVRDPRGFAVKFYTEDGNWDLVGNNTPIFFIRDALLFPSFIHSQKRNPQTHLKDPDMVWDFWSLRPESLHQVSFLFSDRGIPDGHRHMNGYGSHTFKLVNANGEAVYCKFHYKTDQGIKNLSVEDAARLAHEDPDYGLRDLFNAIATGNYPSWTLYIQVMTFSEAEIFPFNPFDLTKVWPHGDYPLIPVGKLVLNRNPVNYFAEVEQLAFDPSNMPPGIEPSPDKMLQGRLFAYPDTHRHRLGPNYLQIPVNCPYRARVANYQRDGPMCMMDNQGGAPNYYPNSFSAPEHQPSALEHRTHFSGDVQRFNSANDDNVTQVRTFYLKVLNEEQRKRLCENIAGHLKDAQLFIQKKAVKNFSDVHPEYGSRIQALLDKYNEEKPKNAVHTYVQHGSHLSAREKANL
The assay is described as follows: UV kinetics of H2O2 decomposition at […] nm, Lineweaver-Burk (IC50 about […]); supported by fluorescence quenching, UV-vis and ATR-FTIR. It counts as biochemical.

In turn, `O=C1C=C(O)C(=O)c2ccccc21` [LAW, 2-hydroxy-1,4-naphtoquinone] showed a Ki of 15.8 µM.
